PubChem BioAssay (NCI)
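In this assay, cells in 96-well plates receive the compound at five concentrations for 48 hours. Endpoints are linearly interpolated between the surrounding concentrations. TGI marks complete inhibition of growth.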

Experiments:
Assay in all cases: NCI-60 cell line screen, 48 h
BT-549 breast = test system: BT-549 breast
SN12C renal = test system: SN12C renal
A549 NSCLC = test system: A549 NSCLC
SF-295 CNS = test system: SF-295 CNS
COLO 205 colon = test system: COLO 205 colon
NCI/ADR-RES ovarian = test system: NCI/ADR-RES ovarian
M14 melanoma = test system: M14 melanoma
PC-3 prostate = test system: PC-3 prostate
NCI-H460 lung = test system: NCI-H460 lung
HCT-15 colon = test system: HCT-15 colon
MDA-MB-435 = test system: MDA-MB-435
SW-620 colon = test system: SW-620 colon
SK-OV-3 ovarian = test system: SK-OV-3 ovarian
MDA-MB-231 breast = test system: MDA-MB-231 breast
IGROV1 ovarian = test system: IGROV1 ovarian
KM12 colon = test system: KM12 colon
786-0 renal = test system: 786-0 renal
SF-539 CNS = test system: SF-539 CNS
ACHN renal = test system: ACHN renal
SR leukemia = test system: SR leukemia
OVCAR-5 ovarian = test system: OVCAR-5 ovarian
K-562 leukemia = test system: K-562 leukemia
TK-10 renal = test system: TK-10 renal
SNB-19 CNS = test system: SNB-19 CNS
OVCAR-3 ovarian = test system: OVCAR-3 ovarian
T-47D breast = test system: T-47D breast
UACC-257 melanoma = test system: UACC-257 melanoma
A498 renal = test system: A498 renal
OVCAR-8 ovarian = test system: OVCAR-8 ovarian
HL-60(TB) leukemia = test system: HL-60(TB) leukemia
SK-MEL-2 melanoma = test system: SK-MEL-2 melanoma
MDA-N = test system: MDA-N
RXF 393 renal = test system: RXF 393 renal
OVCAR-4 ovarian = test system: OVCAR-4 ovarian
HS 578T breast = test system: HS 578T breast
SF-268 CNS = test system: SF-268 CNS
MOLT-4 leukemia = test system: MOLT-4 leukemia
HOP-62 NSCLC = test system: HOP-62 NSCLC
SK-MEL-28 melanoma = test system: SK-MEL-28 melanoma
NCI-H226 lung = test system: NCI-H226 lung
UO-31 renal = test system: UO-31 renal
CCRF-CEM leukemia = test system: CCRF-CEM leukemia
SK-MEL-5 melanoma = test system: SK-MEL-5 melanoma
NCI-H522 lung = test system: NCI-H522 lung
CAKI-1 renal = test system: CAKI-1 renal
NCI-H23 lung = test system: NCI-H23 lung
LOX IMVI melanoma = test system: LOX IMVI melanoma
RPMI-8226 leukemia = test system: RPMI-8226 leukemia
HT29 colon = test system: HT29 colon
U251 CNS = test system: U251 CNS
MCF7 breast = test system: MCF7 breast
HOP-92 NSCLC = test system: HOP-92 NSCLC
HCC-2998 colon = test system: HCC-2998 colon
MALME-3M melanoma = test system: MALME-3M melanoma
EKVX NSCLC = test system: EKVX NSCLC
UACC-62 melanoma = test system: UACC-62 melanoma
HCT-116 colon = test system: HCT-116 colon
DU-145 prostate = test system: DU-145 prostate
SNB-75 CNS = test system: SNB-75 CNS

Measured: TGI

CN(C)c1ccc(C(c2ccc(N(C)C)cc2)c2ccc([N+](=O)[O-])cc2)cc1
> 100 µM: BT-549 breast | SN12C renal | A549 NSCLC | SF-295 CNS | COLO 205 colon | NCI/ADR-RES ovarian | M14 melanoma | PC-3 prostate | NCI-H460 lung | HCT-15 colon | MDA-MB-435 | SW-620 colon | SK-OV-3 ovarian | MDA-MB-231 breast | IGROV1 ovarian | KM12 colon | 786-0 renal | SF-539 CNS | ACHN renal | SR leukemia | OVCAR-5 ovarian | K-562 leukemia | TK-10 renal | SNB-19 CNS | OVCAR-3 ovarian | T-47D breast | UACC-257 melanoma | A498 renal | OVCAR-8 ovarian | HL-60(TB) leukemia | SK-MEL-2 melanoma | MDA-N | RXF 393 renal | OVCAR-4 ovarian | HS 578T breast | SF-268 CNS | MOLT-4 leukemia | HOP-62 NSCLC | SK-MEL-28 melanoma | NCI-H226 lung | UO-31 renal | CCRF-CEM leukemia | SK-MEL-5 melanoma | NCI-H522 lung | CAKI-1 renal | NCI-H23 lung | LOX IMVI melanoma | RPMI-8226 leukemia | HT29 colon | U251 CNS | MCF7 breast | HOP-92 NSCLC | HCC-2998 colon | MALME-3M melanoma | EKVX NSCLC | UACC-62 melanoma | HCT-116 colon | DU-145 prostate

O=c1[nH]cnc2c1ncn2[C@H]1CO[C@@H](CO)[C@@H]1O
> 100 µM: BT-549 breast | SN12C renal | SF-295 CNS | COLO 205 colon | NCI/ADR-RES ovarian | PC-3 prostate | NCI-H460 lung | HCT-15 colon | MDA-MB-435 | SW-620 colon | SK-OV-3 ovarian | MDA-MB-231 breast | IGROV1 ovarian | KM12 colon | 786-0 renal | SF-539 CNS | ACHN renal | SR leukemia | OVCAR-5 ovarian | K-562 leukemia | TK-10 renal | OVCAR-3 ovarian | T-47D breast | UACC-257 melanoma | A498 renal | SK-MEL-2 melanoma | MDA-N | RXF 393 renal | OVCAR-4 ovarian | HS 578T breast | SF-268 CNS | MOLT-4 leukemia | HOP-62 NSCLC | SK-MEL-28 melanoma | NCI-H226 lung | UO-31 renal | CCRF-CEM leukemia | SK-MEL-5 melanoma | NCI-H522 lung | CAKI-1 renal | NCI-H23 lung | LOX IMVI melanoma | RPMI-8226 leukemia | HT29 colon | U251 CNS | MCF7 breast | HOP-92 NSCLC | HCC-2998 colon | MALME-3M melanoma | EKVX NSCLC | SNB-75 CNS | UACC-62 melanoma | HCT-116 colon | DU-145 prostate
